Results published in ChEMBL document CHEMBL4602625, “Synthesis, biological evaluation and SAR studies of ursolic acid 3β-ester derivatives as novel CETP inhibitors” (Bioorg Med Chem Lett, 2020).
pIC50: −log10 of the molar value.

Legend:
[1] = target: T1, Cholesteryl ester transfer protein (Homo sapiens) (UniProt P11597); assay: Inhibition of human CETP at 10 uM relative to control
T1 sequence (whole entry): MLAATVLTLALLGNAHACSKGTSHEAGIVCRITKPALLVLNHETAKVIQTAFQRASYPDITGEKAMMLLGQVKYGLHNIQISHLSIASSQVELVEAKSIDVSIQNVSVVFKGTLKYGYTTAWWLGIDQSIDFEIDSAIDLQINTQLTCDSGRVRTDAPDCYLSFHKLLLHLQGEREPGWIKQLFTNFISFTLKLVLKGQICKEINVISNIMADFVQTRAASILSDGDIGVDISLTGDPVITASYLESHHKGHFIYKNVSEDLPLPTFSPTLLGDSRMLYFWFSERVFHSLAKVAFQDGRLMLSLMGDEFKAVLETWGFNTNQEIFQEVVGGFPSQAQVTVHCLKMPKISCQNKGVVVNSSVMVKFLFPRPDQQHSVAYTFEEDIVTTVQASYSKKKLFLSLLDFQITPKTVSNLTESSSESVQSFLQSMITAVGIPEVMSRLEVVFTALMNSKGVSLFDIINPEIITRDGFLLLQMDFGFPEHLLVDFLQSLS

[2] = target: T2, Cholesteryl ester transfer protein (Homo sapiens, UniProt P11597); assay: Inhibition of human CETP
T2 sequence (P11597 whole entry): T1 sequence (whole entry)

inhibition [1] [%]	pIC50 [2]	SMILES
42.8	4.96	C[C@H]1[C@H](C)CC[C@]2(C(=O)O)CC[C@]3(C)C(=CC[C@@H]4[C@@]5(C)CC[C@H](OC(=O)CCC(=O)O)C(C)(C)[C@@H]5CC[C@]43C)[C@H]12
24.5		C[C@H]1[C@H](C)CC[C@]2(C(=O)O)CC[C@]3(C)C(=CC[C@@H]4[C@@]5(C)CC[C@H](OC(=O)c6ccc(C(=O)O)cc6)C(C)(C)[C@@H]5CC[C@]43C)[C@H]12
22.7		C[C@H]1[C@H](C)CC[C@]2(C(=O)O)CC[C@]3(C)C(=CC[C@@H]4[C@@]5(C)CC[C@H](OC(=O)c6ccccc6)C(C)(C)[C@@H]5CC[C@]43C)[C@H]12
53.2	5.62	C[C@H]1[C@H](C)CC[C@]2(C(=O)O)CC[C@]3(C)C(=CC[C@@H]4[C@@]5(C)CC[C@H](OC(=O)C6CC6C(=O)O)C(C)(C)[C@@H]5CC[C@]43C)[C@H]12 (some centres not stated)
61.8	5.48	C[C@H]1[C@H](C)CC[C@]2(C(=O)O)CC[C@]3(C)C(=CC[C@@H]4[C@@]5(C)CC[C@H](OC(=O)c6cccc(C(=O)O)c6)C(C)(C)[C@@H]5CC[C@]43C)[C@H]12
47.9	5.26	C[C@H]1[C@H](C)CC[C@]2(C(=O)O)CC[C@]3(C)C(=CC[C@@H]4[C@@]5(C)CC[C@H](OC(=O)c6ccccc6C(=O)O)C(C)(C)[C@@H]5CC[C@]43C)[C@H]12
55.1	5.49	C[C@H]1[C@H](C)CC[C@]2(C(=O)O)CC[C@]3(C)C(=CC[C@@H]4[C@@]5(C)CC[C@H](OC(=O)CCCC(=O)O)C(C)(C)[C@@H]5CC[C@]43C)[C@H]12
11.2		C[C@H]1[C@H](C)CC[C@]2(C(=O)O)CC[C@]3(C)C(=CC[C@@H]4[C@@]5(C)CC[C@H](OC(=O)c6cccnc6)C(C)(C)[C@@H]5CC[C@]43C)[C@H]12
0		C[C@H]1[C@H](C)CC[C@]2(C(=O)O)CC[C@]3(C)C(=CC[C@@H]4[C@@]5(C)CC[C@H](OC(=O)CC(C)(C)CC(=O)O)C(C)(C)[C@@H]5CC[C@]43C)[C@H]12

The remaining lines, values behind:

SMILES	inhibition [1] [%]	pIC50 [2]
C[C@H]1[C@H](C)CC[C@]2(C(=O)O)CC[C@]3(C)C(=CC[C@@H]4[C@@]5(C)CC[C@H](OC(=O)CCCCC(=O)O)C(C)(C)[C@@H]5CC[C@]43C)[C@H]12	23.3	
CC(CC(=O)O)CC(=O)O[C@H]1CC[C@]2(C)[C@H]3CC=C4[C@@H]5[C@@H](C)[C@H](C)CC[C@]5(C(=O)O)CC[C@@]4(C)[C@]3(C)CC[C@H]2C1(C)C (some centres not stated)	1.1	
C[C@H]1[C@H](C)CC[C@]2(C(=O)O)CC[C@]3(C)C(=CC[C@@H]4[C@@]5(C)CC[C@H](OC(=O)C6C(C(=O)O)C6(C)C)C(C)(C)[C@@H]5CC[C@]43C)[C@H]12 (some centres not stated)	9	
COc1cc(F)c(C(C)C)cc1-c1ccc(C(F)(F)F)cc1CN1C(=O)O[C@H](c2cc(C(F)(F)F)cc(C(F)(F)F)c2)[C@@H]1C	88.4	
C[C@H]1[C@H](C)CC[C@]2(C(=O)O)CC[C@]3(C)C(=CC[C@@H]4[C@@]5(C)CC[C@H](OC(=O)CC6(CC(=O)O)CCCCC6)C(C)(C)[C@@H]5CC[C@]43C)[C@H]12	1.5	
C[C@H]1[C@H](C)CC[C@]2(C(=O)O)CC[C@]3(C)C(=CC[C@@H]4[C@@]5(C)CC[C@H](OC(=O)CC6(CC(=O)O)CCCC6)C(C)(C)[C@@H]5CC[C@]43C)[C@H]12	0	
C[C@H]1[C@H](C)CC[C@]2(C(=O)O)CC[C@]3(C)C(=CC[C@@H]4[C@@]5(C)CC[C@H](OC(=O)CCCCCC(=O)O)C(C)(C)[C@@H]5CC[C@]43C)[C@H]12	11.1	
C[C@H]1[C@H](C)CC[C@]2(C(=O)O)CC[C@]3(C)C(=CC[C@@H]4[C@@]5(C)CC[C@H](O)C(C)(C)[C@@H]5CC[C@]43C)[C@H]12 [URSOLIC ACID]		< 4.30
